This passage reports IC50 and Ki results from ChEMBL document CHEMBL1909046, “DrugMatrix in vitro pharmacology data”.

In one series the target is T1, Cathepsin G (Homo sapiens, UniProt P08311).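 Note: inhibition of Cathepsin G enzyme activity, tested on an AMC-conjugated peptide substrate; in other assays of this panel Not Active means under 50% inhibition at 10 µM.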
T1 sequence (P08311 whole entry): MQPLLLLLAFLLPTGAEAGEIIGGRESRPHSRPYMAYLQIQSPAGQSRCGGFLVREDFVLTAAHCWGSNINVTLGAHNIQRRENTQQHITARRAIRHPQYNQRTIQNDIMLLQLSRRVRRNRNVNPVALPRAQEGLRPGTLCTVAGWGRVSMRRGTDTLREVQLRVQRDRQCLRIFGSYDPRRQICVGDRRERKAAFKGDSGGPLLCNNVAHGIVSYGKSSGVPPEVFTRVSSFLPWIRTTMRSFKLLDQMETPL
In words: biochemical. The format is tissue-based, Neutrophil. Particulars: neutrophil.

A short description of series [1]: DRUGMATRIX: Calcium Channel Type L, Dihydropyridine radioligand binding (ligand: [3H] Nitrendipine). The format is cell membranes, Rattus norvegicus, Wistar, Cerebral cortex, Membrane. The conditions noted are these: Not Active = under 50% inhibition at 10 µM.
A further series deals with Cannabinoid receptor 1 (Homo sapiens, UniProt P21554). The format is cell membranes, Chem-1, Membrane.
Sequence of Cannabinoid receptor 1 (P21554 whole entry): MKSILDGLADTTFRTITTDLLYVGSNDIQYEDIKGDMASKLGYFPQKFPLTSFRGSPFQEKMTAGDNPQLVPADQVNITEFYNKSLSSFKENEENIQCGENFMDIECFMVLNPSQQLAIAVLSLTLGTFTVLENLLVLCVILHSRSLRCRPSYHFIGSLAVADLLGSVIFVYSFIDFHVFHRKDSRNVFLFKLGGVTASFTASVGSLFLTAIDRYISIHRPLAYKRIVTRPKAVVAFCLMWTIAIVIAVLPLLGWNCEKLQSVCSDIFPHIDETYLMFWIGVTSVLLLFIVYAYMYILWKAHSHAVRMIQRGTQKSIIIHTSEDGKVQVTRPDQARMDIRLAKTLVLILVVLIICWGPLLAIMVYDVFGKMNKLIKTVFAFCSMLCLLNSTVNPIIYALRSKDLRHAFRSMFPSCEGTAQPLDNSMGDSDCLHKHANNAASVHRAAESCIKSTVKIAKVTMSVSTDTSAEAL
Another series deals with Cytochrome P450 2C9 (Homo sapiens, UniProt P11712). Particulars: bti-tn-5b1-4.
Sequence of Cytochrome P450 2C9 (P11712 whole entry): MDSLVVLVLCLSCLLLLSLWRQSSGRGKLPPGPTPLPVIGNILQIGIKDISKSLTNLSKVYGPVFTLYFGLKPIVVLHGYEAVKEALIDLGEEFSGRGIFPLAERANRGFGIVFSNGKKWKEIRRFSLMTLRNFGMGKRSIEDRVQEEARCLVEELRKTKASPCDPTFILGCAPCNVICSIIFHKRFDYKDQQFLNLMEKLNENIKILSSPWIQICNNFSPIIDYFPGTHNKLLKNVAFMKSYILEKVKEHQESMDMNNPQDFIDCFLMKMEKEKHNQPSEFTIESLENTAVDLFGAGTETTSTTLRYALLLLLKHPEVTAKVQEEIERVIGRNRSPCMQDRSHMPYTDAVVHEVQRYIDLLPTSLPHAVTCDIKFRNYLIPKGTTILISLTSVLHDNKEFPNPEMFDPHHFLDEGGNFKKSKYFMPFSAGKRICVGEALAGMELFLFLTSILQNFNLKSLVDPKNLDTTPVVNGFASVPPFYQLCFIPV
Series [2] deals with T2, 3-hydroxy-3-methylglutaryl-coenzyme A reductase (Homo sapiens, UniProt P04035).
T2 sequence (P04035 whole entry): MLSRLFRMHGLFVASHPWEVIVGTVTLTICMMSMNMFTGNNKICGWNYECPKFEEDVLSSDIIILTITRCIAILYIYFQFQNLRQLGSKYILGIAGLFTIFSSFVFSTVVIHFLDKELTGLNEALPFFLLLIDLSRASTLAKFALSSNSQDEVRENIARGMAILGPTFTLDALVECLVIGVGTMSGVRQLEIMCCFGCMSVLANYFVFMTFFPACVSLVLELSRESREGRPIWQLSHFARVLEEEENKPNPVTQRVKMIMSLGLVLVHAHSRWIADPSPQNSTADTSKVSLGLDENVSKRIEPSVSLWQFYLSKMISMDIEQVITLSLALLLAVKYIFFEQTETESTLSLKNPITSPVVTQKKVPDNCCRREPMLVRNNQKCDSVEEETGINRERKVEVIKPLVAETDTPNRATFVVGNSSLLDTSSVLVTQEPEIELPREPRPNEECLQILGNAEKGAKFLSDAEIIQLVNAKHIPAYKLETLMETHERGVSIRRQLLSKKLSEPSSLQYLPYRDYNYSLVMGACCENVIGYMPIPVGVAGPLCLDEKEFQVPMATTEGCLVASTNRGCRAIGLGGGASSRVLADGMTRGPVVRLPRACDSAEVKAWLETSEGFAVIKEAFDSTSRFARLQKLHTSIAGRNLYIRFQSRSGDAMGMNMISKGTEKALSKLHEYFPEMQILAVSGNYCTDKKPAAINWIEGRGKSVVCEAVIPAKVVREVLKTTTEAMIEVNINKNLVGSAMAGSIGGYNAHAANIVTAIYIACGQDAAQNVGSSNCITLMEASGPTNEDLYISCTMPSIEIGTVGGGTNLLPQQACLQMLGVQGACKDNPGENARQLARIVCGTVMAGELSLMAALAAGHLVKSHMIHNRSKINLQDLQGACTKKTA
Details: species or system Escherichia coli.

The next series has as its target T3, Cytochrome P450 1A2 (Homo sapiens, UniProt P05177). Note: in other assays of this panel Not Active means under 50% inhibition at 10 µM.
T3 sequence (P05177 whole entry): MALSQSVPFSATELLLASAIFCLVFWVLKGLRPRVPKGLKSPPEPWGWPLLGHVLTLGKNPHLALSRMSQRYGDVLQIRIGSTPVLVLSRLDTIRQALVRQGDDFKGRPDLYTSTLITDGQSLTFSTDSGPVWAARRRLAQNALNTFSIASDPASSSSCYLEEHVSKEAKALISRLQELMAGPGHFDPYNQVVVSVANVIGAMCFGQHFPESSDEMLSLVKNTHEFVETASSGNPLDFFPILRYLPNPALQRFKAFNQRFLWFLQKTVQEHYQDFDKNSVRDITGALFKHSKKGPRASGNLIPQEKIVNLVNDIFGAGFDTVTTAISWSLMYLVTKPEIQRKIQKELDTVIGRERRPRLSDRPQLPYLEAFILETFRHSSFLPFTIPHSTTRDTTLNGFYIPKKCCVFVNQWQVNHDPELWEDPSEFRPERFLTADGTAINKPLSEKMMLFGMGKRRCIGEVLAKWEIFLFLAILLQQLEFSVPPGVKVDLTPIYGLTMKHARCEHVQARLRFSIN
Particulars: bti-tn-5b1-4.

Series [3] is described as follows: DRUGMATRIX: Glutamate, Kainate radioligand binding (ligand: [3H] Kainic acid). The conditions noted are these: Not Active = under 50% inhibition at 10 µM. The class given is cell membranes, Rattus norvegicus, Wistar, Brain, Membrane.
In a further series the target is Carbonic anhydrase 2 (Homo sapiens, UniProt P00918). Description: DRUGMATRIX: Carbonic Anhydrase II enzyme inhibition (substrate: 4-Nitrophenyl acetate (4-NPA)). The format is tissue-based, Erythrocyte. The conditions noted are these: erythrocyte; Not Active = under 50% inhibition at 10 µM.

`COc1cc(/C=C/C(=O)O)ccc1O` [FERULATE]: the IC50 result (against Cathepsin G; in series [1]; on Cannabinoid receptor 1 (chem-1); at Cytochrome P450 2C9; in series [2]; at Cytochrome P450 1A2) was “Not Active” in each case. Besides, the concentration for half-maximal inhibition (IC50) result (in series [3]; against Carbonic anhydrase 2) was “Not Active” in each case. The Ki result (in series [1]; on Cytochrome P450 2C9; on Cytochrome P450 1A2; in series [3]) was “Not Active” each time.
Consider `CC(C)(C#N)c1cc(Cn2cncn2)cc(C(C)(C)C#N)c1` [ANASTROZOLE], for which the IC50 result (against Cathepsin G; in series [1]; at Cannabinoid receptor 1 (chem-1); against Cytochrome P450 2C9; in series [2]; against Cytochrome P450 1A2) was “Not Active” in each case. Further, the IC50 entry (in series [3]; against Carbonic anhydrase 2) was “Not Active” in each case. Also, the Ki entry (in series [1]; on Cytochrome P450 2C9; on Cytochrome P450 1A2; in series [3]) was “Not Active” throughout.
Regarding `O=C(O)COC(=O)Cc1ccccc1Nc1c(Cl)cccc1Cl` [ACECLOFENAC], the IC50 entry (against Cathepsin G; in series [1]; on Cannabinoid receptor 1 (chem-1); against Cytochrome P450 2C9; in series [2]; on Cytochrome P450 1A2) was “Not Active” each time. In addition, the IC50 result (in series [3]; against Carbonic anhydrase 2) was “Not Active” each time. The Ki entry (in series [1]; at Cytochrome P450 2C9; at Cytochrome P450 1A2; in series [3]) was “Not Active” throughout.
`Cl.NC[C@H]1CC[C@H](C(=O)Oc2ccc(CCC(=O)O)cc2)CC1` [CETRAXATE HYDROCHLORIDE]: the IC50 result (at Cathepsin G; in series [1]; against Cannabinoid receptor 1 (chem-1); on Cytochrome P450 2C9; in series [2]; against Cytochrome P450 1A2) was “Not Active” each time. Further, the IC50 result (in series [3]; against Carbonic anhydrase 2) was “Not Active” throughout. In addition, the Ki entry (in series [1]; on Cytochrome P450 2C9; on Cytochrome P450 1A2; in series [3]) was “Not Active” each time.
As for `CC(=O)[C@]1(O)Cc2c(O)c3c(c(O)c2[C@@H](O[C@H]2C[C@H](N)[C@H](O)[C@H](C)O2)C1)C(=O)c1ccccc1C3=O` [IDARUBICIN], the IC50 result (at Cathepsin G; in series [1]; against Cannabinoid receptor 1 (chem-1); against Cytochrome P450 2C9; in series [2]; against Cytochrome P450 1A2) was “Not Active” throughout. Besides, the IC50 entry (in series [3]; at Carbonic anhydrase 2) was “Not Active” in each case. Also, the inhibitory constant (Ki) entry (in series [1]; on Cytochrome P450 2C9; on Cytochrome P450 1A2; in series [3]) was “Not Active” in each case.
Take `CC(=O)Nc1ccc2c(c1)Cc1ccccc1-2` [2-ACETYLAMINOFLUORENE]: the IC50 entry (at Cathepsin G; in series [1]; against Cannabinoid receptor 1 (chem-1); at Cytochrome P450 2C9; in series [2]; in series [3]) was “Not Active” each time. Moreover, on Carbonic anhydrase 2, the IC50 result is “Not Active”. Further, the Ki result (in series [1]; at Cytochrome P450 2C9; in series [3]) was “Not Active” in each case.
On to `COc1cc(NC(C)CCCN)c2ncccc2c1` (stereo unspecified) [PRIMAQUINE], for which the IC50 result (at Cathepsin G; in series [1]; on Cannabinoid receptor 1 (chem-1); on Cytochrome P450 2C9; in series [2]; in series [3]) was “Not Active” throughout. Also, the IC50 entry against Carbonic anhydrase 2 is listed as “Not Active”. Further, the Ki result (in series [1]; on Cytochrome P450 2C9; in series [3]) was “Not Active” in each case.
With `CC(N)Cc1c[nH]c2ccc(OCc3cccs3)cc12` (stereo unspecified) [BW-723C86], the IC50 entry (at Cathepsin G; in series [1]; against Cannabinoid receptor 1 (chem-1); against Cytochrome P450 2C9; in series [2]; in series [3]) was “Not Active” in each case. For the same compound, at Carbonic anhydrase 2, the IC50 entry was “Not Active”. Also, the Ki result (in series [1]; on Cytochrome P450 2C9; in series [3]) was “Not Active” in each case.
Take `c1ccc2c(c1)Nc1ccccc1S2` [PHENOTHIAZINE]: the IC50 result against Cathepsin G was “Not Active”; in series [1] it was “Not Active”; on Cannabinoid receptor 1 (read-out: IC50), 24.9 µM; on Cytochrome P450 2C9, “Not Active”; in series [2], “Not Active”; in series [3], “Not Active”. The IC50 result at Carbonic anhydrase 2 is listed as “Not Active”. For the same compound, the Ki result in series [1] was “Not Active”; on Cannabinoid receptor 1 (read-out: Ki) it was 19.6 µM; at Cytochrome P450 2C9 it was “Not Active”; in series [3], “Not Active”.
Turning to `c1ccc(Cn2ccnc2)cc1`, the IC50 result (on Cathepsin G; in series [1]; on Cannabinoid receptor 1 (chem-1); against Cytochrome P450 2C9; in series [2]; in series [3]) was “Not Active” throughout. Also, at Carbonic anhydrase 2, the IC50 result is “Not Active”. Further, the Ki result (in series [1]; at Cytochrome P450 2C9; in series [3]) was “Not Active” throughout.
For `CC[C@H]1OC(=O)[C@H](C)[C@@H](O[C@H]2C[C@@](C)(OC)[C@@H](O)[C@H](C)O2)[C@H](C)[C@@H](O[C@@H]2O[C@H](C)C[C@H](N(C)C)[C@H]2O)[C@](C)(O)C[C@@H](C)C(=O)[C@H](C)[C@@H](O)[C@]1(C)O` [ERYTHROMYCIN], the IC50 entry (against Cathepsin G; in series [1]; against Cannabinoid receptor 1 (chem-1); in series [2]; against Cytochrome P450 1A2; in series [3]) was “Not Active” in each case. The IC50 result on Carbonic anhydrase 2 is “Not Active”. In addition, the Ki entry (in series [1]; at Cytochrome P450 1A2; in series [3]) was “Not Active” throughout.
As to `CN(CCOc1ccc(C[C@H](Nc2ccccc2C(=O)c2ccccc2)C(=O)O)cc1)c1ccccn1`, the IC50 entry (against Cathepsin G; in series [1]; against Cannabinoid receptor 1 (chem-1); in series [2]; against Cytochrome P450 1A2; in series [3]) was “Not Active” throughout. Besides, on Carbonic anhydrase 2, the IC50 entry is listed as “Not Active”. For the same compound, the Ki entry (in series [1]; at Cytochrome P450 1A2; in series [3]) was “Not Active” in each case.
Turning to `O=c1[nH]c2ccccc2c2ccccc12`, the IC50 result (against Cathepsin G; in series [1]; on Cannabinoid receptor 1 (chem-1); against Cytochrome P450 2C9; in series [2]; in series [3]) was “Not Active” each time. In addition, the IC50 entry on Carbonic anhydrase 2 is “Not Active”. In addition, the Ki result (in series [1]; on Cytochrome P450 2C9; in series [3]) was “Not Active” throughout.
